The target in assay [1] is T1, recombinant SrtA from S. aureus ATCC6538p (Staphylococcus aureus, UniProt Q2FV99).
T1 construct: made in house; host or cells: Escherichia coli
The assay can be described thus: SrtA inhibition assay (fluorescence, dabcyl-LPETG-edans cleavage). It is filed as biochemical. The source says: The same bioassays were pursued with the new compounds and the known congeners, with a particular emphasis on SrtA inhibition. The rationale of SrtA inhibition is that this transpeptidase decorates the surfaces of Gram-positive bacteria with a diverse array of proteins that enable microbes to effectively interact with their environment, and it is not required for bacterial growth or viability. It is thus considered a promising target for the development of anti-virulence drugs aimed at interfering with important virulence mechanisms such as adhesion to host tissues. To assess the SrtA inhibitory activity of compounds 1–14, recombinant SrtA derived from S. aureus ATCC6538p was purified from Escherichia coli extracts using metal chelate-affinity chromatography. The enzyme activity was determined from the fluorescence intensity upon cleavage of a peptide substrate containing the LPETG motif.
Before evaluating the SrtA inhibitory activity of the test compounds, recombinant SrtA from S. aureus ATCC6538p was prepared according to methods described in a previous paper. The SrtA inhibitory activity of the test compounds was determined according to previously described methods with minor modifications. The reaction was carried out with 100 μL buffer (50 mM Tris-HCl, 5 mM CaCl2, and 150 mM NaCl, pH 7.5), 7.5 µM synthetic peptide dabcyl-LPETG-edans (AnaSpec, Inc., Fremont, CA, USA), 7.5 µM purified SrtA, and test samples at various concentrations. […] The SrtA inhibition assay was conducted at 37 °C for 1 h, and inhibition was quantified fluorometrically using a microplate reader (FLx800, BioTek Instruments, Winooski, VT, USA) at excitation and emission wavelengths of 350 and 495 nm, respectively. Berberine chloride and triphasiol were used as reference inhibitors of SrtA.

Assay [2] concerns Trichophyton rubrum NBRC9185. The experiment in a line: Antifungal activity MIC. It is filed as cell-based.
Assay [3] concerns Escherichia coli ATCC25922. The experiment in a line: Antibacterial activity MIC. It is filed as cell-based. The following applies: Gram-negative; for MIC: Escherichia coli, read-out: Antibacterial Activity MIC, E. coli.
Assay [4] has as its system Salmonella enterica ATCC14028. The experiment in a line: Antibacterial activity MIC. It is filed as cell-based. The following applies: ATCC14028, read-out: Antibacterial Activity MIC, Salmonella enterica.
Assay [5] has as its system Trichophyton mentagrophytes IFM40996. The assay can be described thus: Antifungal activity MIC. Type of assay: cell-based.
The subject of assay [6] is Enterococcus faecalis ATCC19433. The experiment in a line: Antibacterial activity MIC. Type of assay: cell-based. The following applies: ATCC19433, read-out: Antibacterial Activity MIC, Enterococcus faecalis.
The subject of assay [7] is Aspergillus fumigatus HIC6094. The experiment in a line: Antifungal activity MIC. Type of assay: cell-based.
The test system of assay [8] is Klebsiella pneumoniae ATCC10031. The assay can be described thus: Antibacterial activity MIC. It is filed as cell-based. The following applies: ATCC10031, read-out: Antibacterial Activity MIC, Klebsiella pneumonia.
For assay [9], the system named is Candida albicans ATCC10231. The assay can be described thus: Antifungal activity MIC. Type of assay: cell-based.
The next assay deals with A549 cell line. The experiment in a line: MTT cytotoxicity assay. It is filed as cell-based. The following applies: Homo sapiens. As for the experimental part: (§1) An MTT assay was performed as previously described to determine the cytotoxicity against A549 and K562 cell lines. These cancer cell lines were purchased from the Korean Cell Line Bank (KCLB), Seoul, Republic of Korea.

Another assay concerns K562 cell line. The assay can be described thus: MTT cytotoxicity assay. It is filed as cell-based. The following applies: Homo sapiens. The protocol:
as §1

A further assay concerns S. aureus strain Newman. The experiment in a line: Antibacterial activity MIC. It is filed as cell-based. The following applies: Staphylococcus aureus, read-out: Antibacterial Activity MIC, S. aureus.
Assay [10] has as its system Enterococcus faecium ATCC19434. The experiment in a line: Antibacterial activity MIC. The following applies: ATCC19434, read-out: Antibacterial Activity MIC, Enterococcus faecium. It is filed as cell-based.
Setting [11] is: MTT assay, A549, read-out: IC50 A549.
Where [12] appears, read: MTT assay, K562, read-out: IC50 K562.

Structures are written as SMILES. ≈ marks a conversion by molar mass, not a printed value. Like-named read-outs stand apart in the source and are kept apart here.

T1 sequence (Q2FV99 whole entry): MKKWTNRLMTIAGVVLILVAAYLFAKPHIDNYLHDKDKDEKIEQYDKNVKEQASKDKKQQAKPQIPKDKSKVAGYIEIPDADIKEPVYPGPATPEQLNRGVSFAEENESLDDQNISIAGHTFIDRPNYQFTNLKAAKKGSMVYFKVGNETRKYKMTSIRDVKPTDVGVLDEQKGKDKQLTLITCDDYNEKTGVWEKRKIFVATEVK

By IC50 is commonly meant the midpoint of a concentration-inhibition curve. The term MIC denotes the smallest concentration in the dilution series that meets the test's criterion for growth inhibition. As for `O=C1NC[C@H](c2c[nH]c3cc(Br)ccc23)N[C@H]1c1c[nH]c2cc(Br)ccc12` [Compound 12, (3S, 5R)-6-dibromo-trans-3,4-dihydrohamacanthin B], the IC50 in [1] was more than 263 µM; with A549 cell line (A549, read-out: IC50 A549), 34.3 µM; with K562 cell line (K562, read-out: IC50 K562), 9.7 µM. The MIC in assay [2] was more than 128 µg/mL; in [3], more than 128 µg/mL; in [4] it was 8 µg/mL (≈ 16.4 µM); in assay [5], more than 128 µg/mL; in assay [6], 16 µg/mL (≈ 32.8 µM); in assay [7], more than 128 µg/mL. The minimal inhibitory concentration (MIC) was 8 µg/mL (≈ 16.4 µM) in [8], more than 128 µg/mL in assay [9], 8 µg/mL (≈ 16.4 µM) in the assay on S. aureus strain Newman (NEWMAN) and more than 128 µg/mL in [10]. Also, in assay [3], the “Antibacterial Activity MIC, E. coli” value is more than 128 µg/mL.
For `COC(=O)c1c[nH]c2ccccc12` [Compound 13, 3-carbomethoxyindole], the 50% inhibitory concentration (IC50) in assay [1] was 164 µM; in the assay on A549 cell line (setting [11]), 59.2 µM; with K562 cell line (setting [12]), more than 100 µM. Also, the MIC in assay [2], in [3], in assay [4] (Gram-negative), in assay [5], in [6] (Gram-positive) and in assay [7] was more than 128 µg/mL throughout. In addition, the MIC in assay [8] (Gram-negative) was more than 128 µg/mL; in assay [9], more than 128 µg/mL; in the assay with S. aureus strain Newman (Gram-positive, strain Newman), 128 µg/mL (≈ 731 µM); in assay [10] (Gram-positive), more than 128 µg/mL.
With `COC(=O)c1c[nH]c2cc(O)ccc12` [Compound 14, 6-hydroxy-3-carbomethoxyindole], the values for the IC50 (in assay [1]; with A549 cell line (setting [11]); with K562 cell line (setting [12])) were 191 µM, 66.8 µM and more than 100 µM, respectively. Also, the MIC in [2], in assay [3], in assay [4] (Gram-negative), in assay [5], in assay [6] (Gram-positive) and in [7] was more than 128 µg/mL throughout. For the same compound, the MIC in [8] (Gram-negative) is more than 128 µg/mL; in [9], more than 128 µg/mL; in the assay with S. aureus strain Newman (Gram-positive, strain Newman), 128 µg/mL (≈ 670 µM); in assay [10] (Gram-positive) it was more than 128 µg/mL.
